Test results: PMC4579270, “Identification and Characterization of an Irreversible Inhibitor of CDK2” (Chemistry & Biology, 2015)
Read-outs that look alike come from different tables or passages of the source.

Tests used:
Assay in all cases: Dundee kinase screen re-test (standard format and 4 hour pre-incubation)
Format in all cases: biochemical
ERK8 = biological target: T1, ERK8 (Homo sapiens, UniProt Q8TD08); settings: ERK8, 0.5µM
T1 sequence (Q8TD08 1-544): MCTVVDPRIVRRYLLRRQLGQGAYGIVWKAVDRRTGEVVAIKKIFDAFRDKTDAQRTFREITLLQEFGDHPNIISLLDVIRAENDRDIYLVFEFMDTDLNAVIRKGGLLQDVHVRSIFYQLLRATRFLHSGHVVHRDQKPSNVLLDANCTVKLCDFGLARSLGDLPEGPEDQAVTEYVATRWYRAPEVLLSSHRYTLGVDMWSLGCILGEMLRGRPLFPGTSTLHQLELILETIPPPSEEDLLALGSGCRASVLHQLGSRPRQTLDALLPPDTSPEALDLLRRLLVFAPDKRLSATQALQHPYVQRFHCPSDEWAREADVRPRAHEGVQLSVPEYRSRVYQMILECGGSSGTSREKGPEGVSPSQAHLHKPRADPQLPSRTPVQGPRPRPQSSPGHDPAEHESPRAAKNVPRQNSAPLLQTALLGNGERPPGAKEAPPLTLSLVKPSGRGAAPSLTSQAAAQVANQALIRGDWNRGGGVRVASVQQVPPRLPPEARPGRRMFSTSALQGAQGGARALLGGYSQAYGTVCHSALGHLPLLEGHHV
Summary of the method: (§1)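 Selectivity panel of 131 protein kinases, inhibitor tested at a single concentration of 1 µM; values are % kinase activity remaining, mean of duplicates. Re-test of selected kinases used 0.5 µM in the standard format and again after a 4 hour pre-incubation with the inhibitor.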

TBK1 = biological target: T2, TBK1 (Homo sapiens, UniProt Q9UHD2); settings: TBK1, 0.5µM
T2 sequence (Q9UHD2 1-729): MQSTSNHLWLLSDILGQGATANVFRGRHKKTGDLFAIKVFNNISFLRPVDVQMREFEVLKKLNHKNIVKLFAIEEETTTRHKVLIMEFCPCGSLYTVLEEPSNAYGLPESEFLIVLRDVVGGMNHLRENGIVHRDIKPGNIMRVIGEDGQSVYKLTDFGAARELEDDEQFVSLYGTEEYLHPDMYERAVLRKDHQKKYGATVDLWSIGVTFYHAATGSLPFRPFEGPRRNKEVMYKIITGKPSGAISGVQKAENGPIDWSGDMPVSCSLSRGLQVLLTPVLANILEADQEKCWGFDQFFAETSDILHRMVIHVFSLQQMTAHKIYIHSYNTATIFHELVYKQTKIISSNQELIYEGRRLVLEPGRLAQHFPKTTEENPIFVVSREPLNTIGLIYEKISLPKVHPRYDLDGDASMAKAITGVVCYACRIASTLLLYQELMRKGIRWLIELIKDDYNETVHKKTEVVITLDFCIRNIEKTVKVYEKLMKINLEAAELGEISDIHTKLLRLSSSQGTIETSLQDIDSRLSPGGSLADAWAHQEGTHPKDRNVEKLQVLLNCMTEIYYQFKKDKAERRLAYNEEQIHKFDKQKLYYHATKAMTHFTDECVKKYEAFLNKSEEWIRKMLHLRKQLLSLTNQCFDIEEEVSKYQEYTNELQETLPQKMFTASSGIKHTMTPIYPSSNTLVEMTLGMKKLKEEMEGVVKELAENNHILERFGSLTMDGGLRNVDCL
Summary of the method: as §1

TAO1 = biological target: T3, TAO1 (Homo sapiens, UniProt Q7L7X3); settings: TAO1, 0.5µM
T3 sequence (Q7L7X3 1-1001): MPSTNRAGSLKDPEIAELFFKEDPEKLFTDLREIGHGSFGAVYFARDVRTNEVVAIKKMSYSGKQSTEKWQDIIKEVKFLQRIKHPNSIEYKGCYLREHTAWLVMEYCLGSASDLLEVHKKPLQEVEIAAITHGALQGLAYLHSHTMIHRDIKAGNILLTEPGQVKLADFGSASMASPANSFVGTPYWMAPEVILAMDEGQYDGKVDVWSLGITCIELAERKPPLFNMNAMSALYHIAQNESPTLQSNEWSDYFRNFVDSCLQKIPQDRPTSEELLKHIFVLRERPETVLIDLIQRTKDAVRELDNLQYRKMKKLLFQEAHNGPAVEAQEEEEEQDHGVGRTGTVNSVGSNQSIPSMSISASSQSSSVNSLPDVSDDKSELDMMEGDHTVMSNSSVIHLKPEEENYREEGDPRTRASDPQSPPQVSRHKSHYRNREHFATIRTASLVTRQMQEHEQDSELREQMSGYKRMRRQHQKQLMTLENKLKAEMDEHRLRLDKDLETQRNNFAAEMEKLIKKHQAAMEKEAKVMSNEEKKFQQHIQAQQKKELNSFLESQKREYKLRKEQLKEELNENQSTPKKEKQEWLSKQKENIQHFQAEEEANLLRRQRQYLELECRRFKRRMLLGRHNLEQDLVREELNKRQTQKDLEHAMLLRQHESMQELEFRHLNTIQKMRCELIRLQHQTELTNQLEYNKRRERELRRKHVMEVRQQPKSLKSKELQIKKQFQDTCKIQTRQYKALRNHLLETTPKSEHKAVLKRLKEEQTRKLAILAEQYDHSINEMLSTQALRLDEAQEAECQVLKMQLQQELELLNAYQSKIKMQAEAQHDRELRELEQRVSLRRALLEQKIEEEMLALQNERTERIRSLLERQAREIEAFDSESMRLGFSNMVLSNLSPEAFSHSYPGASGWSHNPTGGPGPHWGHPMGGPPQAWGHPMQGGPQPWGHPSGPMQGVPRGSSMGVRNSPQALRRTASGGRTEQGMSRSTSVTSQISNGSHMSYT
Summary of the method: as §1

MLK1 = MLK1 (Homo sapiens, UniProt P80192); settings: MLK1, 0.5µM
Summary of the method: as §1

[1] = 4hr RT preincubation, read-out: %Remaining activity at 0.5µM NU6300 - 4hr RT preincubation
[2] = usual format, read-out: %Remaining activity at 0.5µM NU6300 - Usual assay format

MLK1, sequence (P80192 whole entry): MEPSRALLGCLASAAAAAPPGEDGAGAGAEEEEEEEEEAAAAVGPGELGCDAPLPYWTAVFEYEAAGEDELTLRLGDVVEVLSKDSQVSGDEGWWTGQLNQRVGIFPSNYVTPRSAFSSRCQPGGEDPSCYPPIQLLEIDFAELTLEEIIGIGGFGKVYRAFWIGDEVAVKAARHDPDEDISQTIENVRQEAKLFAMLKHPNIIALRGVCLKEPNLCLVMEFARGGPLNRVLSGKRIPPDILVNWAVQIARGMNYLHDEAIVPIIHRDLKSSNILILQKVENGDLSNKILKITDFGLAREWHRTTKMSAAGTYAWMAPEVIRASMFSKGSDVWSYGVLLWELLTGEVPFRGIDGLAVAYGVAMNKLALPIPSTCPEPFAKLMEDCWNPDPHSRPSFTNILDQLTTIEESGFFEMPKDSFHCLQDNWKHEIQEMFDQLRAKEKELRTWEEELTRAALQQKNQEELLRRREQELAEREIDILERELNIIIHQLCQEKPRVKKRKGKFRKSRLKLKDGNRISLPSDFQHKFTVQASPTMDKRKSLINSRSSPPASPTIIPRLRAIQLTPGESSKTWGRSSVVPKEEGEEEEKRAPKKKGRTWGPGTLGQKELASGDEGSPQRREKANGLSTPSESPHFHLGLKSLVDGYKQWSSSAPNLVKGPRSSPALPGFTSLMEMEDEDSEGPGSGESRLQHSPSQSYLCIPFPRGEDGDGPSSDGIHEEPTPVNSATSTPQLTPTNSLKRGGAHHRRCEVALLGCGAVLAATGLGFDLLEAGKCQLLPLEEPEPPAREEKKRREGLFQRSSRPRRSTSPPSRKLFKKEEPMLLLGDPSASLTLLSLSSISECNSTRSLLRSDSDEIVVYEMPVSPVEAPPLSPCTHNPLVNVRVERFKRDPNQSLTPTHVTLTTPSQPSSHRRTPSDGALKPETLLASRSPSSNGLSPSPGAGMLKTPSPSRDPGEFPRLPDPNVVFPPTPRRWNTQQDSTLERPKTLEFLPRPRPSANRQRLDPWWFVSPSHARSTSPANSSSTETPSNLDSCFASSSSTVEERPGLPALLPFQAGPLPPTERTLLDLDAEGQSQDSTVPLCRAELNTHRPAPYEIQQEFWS

`C=CS(=O)(=O)c1ccc(Nc2nc(OCC3CCCCC3)c3nc[nH]c3n2)cc1` [NU6300, 6-(cyclohexylmethoxy)-N-(4-(vinylsulfonyl)phenyl)-9H-purin-2-amine] was tested, and the remaining activity at 0.5 µM (ERK8; [1]) was 68%, the remaining activity at 0.5 µM (ERK8; [2]) was 20% and the remaining activity at 0.5 µM (TBK1; [1]) was 75%. The remaining activity at 0.5 µM (TBK1; [2]) was 62%, the remaining activity at 0.5 µM (TAO1; [1]) was 20% and the remaining activity at 0.5 µM (TAO1; [2]) was 27%. It also gave a remaining activity at 0.5 µM (MLK1; [1]) of 29% and a remaining activity at 0.5 µM (MLK1; [2]) of 4%.
